Results: US20040006061A1, “Alkoxybenzylamine” (priority 2001, published 2004)
Where two headings read alike, the source gives them in different places.

Key:
[1] = test system: Staphylococcus hominis DSM 20328; experiment: Determination of the Minimum Inhibitory Concentration (MIC value) in microtitre plates, Staphylococcus hominis; type: cell-based; conditions: for MIC: Staphylococcus hominis, DSM20328, 48 h, read-out: MIC [μg/ml] SH
Description: (§1) Determination of the Minimum Inhibitory Concentration (MIC Value) in Microtitre Plates
Casein-soybean flour-peptone broth for preparation of pre-cultures of test bacteria and yeast.
Staphylococcus hominis DSM 20328 […]
(§2) The test substances are pre-dissolved in dimethyl sulfoxide (DMSO) and tested in a dilution series of 1:2.
(§3) The bacteria are cultured overnight in CASO broth and washed off using 10 ml of 0.85% sodium chloride solution (+0.1% Triton X-100).
(§4) All the test organisms are adjusted to an organism count of 1-5×10^6 CFU/ml using 0.85% sodium chloride solution.
(§5) The test substances are pre-pipetted into microtitre plates in amounts of 8 μl per well.
(§6) Pre-diluted test organism suspensions are diluted 1:100 in CASO broth.
(§7) The test batches are incubated for 48 hours at 37° C.
(§8) After incubation, the growth is determined on the basis of the turbidity of the test batches (optical density) at 620 nm in a microplate reader.
(§9) The minimum inhibitory concentration (MIC value) is the concentration of substance at which there is found (compared to the growth of the control) an appreciable inhibition of growth (≦20% growth) of the test organisms.
(§10) One microtitre plate is used for each test organism and substance concentration.
(§11) All the substances are tested in duplicate.

[2] = test system: Escherichia coli NCTC 8196; experiment: Determination of the Minimum Inhibitory Concentration (MIC value) in microtitre plates, Escherichia coli; type: cell-based; conditions: for MIC: Escherichia coli, NCTC8196, 48 h, read-out: MIC [μg/ml] EC
Description: as §1
Casein-soybean flour-peptone broth for preparation of pre-cultures of test bacteria and yeast. […]
Escherichia coli NCTC 8196
as §2, §3, §4, §5, §6, §7, §8, §9, §10, §11

[3] = Staphylococcus hominis DSM 20328, CASO broth, 48 hours at 37° C., MIC = ≦20% growth (optical density at 620 nm)
[4] = Escherichia coli NCTC 8196, CASO broth, 48 hours at 37° C., MIC = ≦20% growth (optical density at 620 nm)

SMILES | MIC [1, 3] [µg/mL] | MIC [2, 4] [µg/mL] | further results
CCCOc1ccc(CN(C)C)cc1OC [Compound of formula (68)] | > 120 | > 120 | 
CCCOc1ccc(CN2CCNCC2)cc1OC [Compound of formula (69)] |  |  | MIC [1]: > 120 µg/mL; MIC [2]: > 120 µg/mL
CCCOc1ccc(CN2CCCCC2)cc1OC [Compound of formula (70)] | > 120 | > 120 | 
CCCCCCCCCCCCOc1ccc(CN(C)CCc2ccccn2)cc1 [Compound of formula (71)] | > 120 | > 120 | 
CCCCCCCCCCCCOc1ccc(CN2CCOCC2)cc1 [Compound of formula (72)] | > 120 | > 120 | 
CCCCCCCCCCCCOc1ccc(CN(C)CCCC)cc1 [Compound of formula (73)] | 120 | > 120 | 
CCCCCCCCCCCCOc1ccc(CN2CCCCCC2)cc1 [Compound of formula (74)] | 3.75 | > 120 | 
CCCCCCCCCCCCOc1ccc(CN(C(C)C)C(C)C)cc1 [Compound of formula (75)] | > 120 | > 120 | 
CCCCCCCCCCCCOc1ccc(CN2CCN(C)CC2)cc1 [Compound of formula (76)] | 7.5 | > 120 | 
CCCCCCCCCCCCOc1ccc(CN(C)CC)cc1 [Compound of formula (77)] | 15 | > 120 | 
CCCCCCCCCCCCOc1ccc(CN2CCN(C(C)=O)CC2)cc1 [Compound of formula (78)] | > 120 | > 120 | 
CCCCCCCCCCCCOc1ccc(CN(C)Cc2ccccc2)cc1 [Compound of formula (79)] | 60 | > 120 | 
CCCCCCCCCCCCOc1ccc(CN(C)CCCCCC)cc1 [Compound of formula (80)] | 60 | > 120 | 
CCCCCCCCCCCCOc1ccc(CN2CCN(CC)CC2)cc1 [Compound of formula (81)] | 15 | > 120 | 
CCCCCCCCCCCCOc1ccc(CN2CCCC2)cc1 [Compound of formula (82)] |  | 60 | MIC [μg/ml] SH ([1]; Staphylococcus hominis DSM 20328, CASO broth, 48 hours at 37° C., MIC = ≦20% growth (optical density at 620 nm), listed as (82)): 7.5 µg/mL
CCCCCCCCCCCCOc1ccc(CN2CCCC2)cc1 [Compound of formula (83)] |  |  | MIC [μg/ml] SH ([1]; Staphylococcus hominis DSM 20328, CASO broth, 48 hours at 37° C., MIC = ≦20% growth (optical density at 620 nm), listed as (83)): >120 µg/mL; MIC [μg/ml] EC [2, 4]: >120 µg/mL
CCCCCCCCCCCCOc1ccc(CN(C)C)cc1 [Compound of formula (84)] | 7.5 | 60 | 
CCCCCCCCCCCCOc1ccc(CN2CCNCC2)cc1 [Compound of formula (85)] | > 120 | > 120 | 

SMILES | MIC [1, 3] [µg/mL] | MIC [2, 4] [µg/mL] | further results
CCCCCCCCCCCCOc1ccc(CN2CCCCC2)cc1 [Compound of formula (86)] | 7.5 | > 120 | 
CCCCCCOc1ccc(CN(C)CCc2ccccn2)cc1OCCCCCC [Compound of formula (87)] | 30 | > 120 | 
CCCCCCOc1ccc(CN2CCOCC2)cc1OCCCCCC [Compound of formula (88)] | > 120 | > 120 | 
CCCCCCOc1ccc(CN(C)CCCC)cc1OCCCCCC [Compound of formula (89)] | 60 | > 120 | 
CCCCCCOc1ccc(CN2CCCCCC2)cc1OCCCCCC [Compound of formula (90)] | 7.5 | > 120 | 
CCCCCCOc1ccc(CN(C(C)C)C(C)C)cc1OCCCCCC [Compound of formula (91)] | > 120 | > 120 | 
CCCCCCOc1ccc(CN2CCN(C)CC2)cc1OCCCCCC [Compound of formula (92)] | 15 | 60 | 
CCCCCCOc1ccc(CN(CC)CC)cc1OCCCCCC [Compound of formula (93)] | 7.5 | 120 | 
CCCCCCOc1ccc(CN2CCN(C(C)=O)CC2)cc1OCCCCCC [Compound of formula (94)] | > 120 | > 120 | 
CCCCCCOc1ccc(CN(C)Cc2ccccc2)cc1OCCCCCC [Compound of formula (95)] | > 120 | > 120 | 
CCCCCCOc1ccc(CN(C)CCCCCC)cc1OCCCCCC [Compound of formula (96)] | 120 | > 120 | 
CCCCCCOc1ccc(CN2CCN(CC)CC2)cc1OCCCCCC [Compound of formula (97)] | 30 | 120 | 
CCCCCCOc1ccc(CN2CCCC2)cc1OCCCCCC [Compound of formula (98)] | 3.75 | 7.5 | 
CCCCCCCCCCCCN(C)Cc1ccc(OCCCCCC)c(OCCCCCC)c1 [Compound of formula (99)] | > 120 | > 120 | 
CCCCCCOc1ccc(CN(C)C)cc1OCCCCCC [Compound of formula (100)] | 7.5 | 7.5 | 
CCCCCCOc1ccc(CN2CCNCC2)cc1OCCCCCC [Compound of formula (101)] | > 120 | > 120 | 
CCCCCCOc1ccc(CN2CCCCC2)cc1OCCCCCC [Compound of formula (102)] | 7.5 | > 120 | 
